According to patent US12490760B2, “Compound and flavor-imparting composition using same” (T. HASEGAWA CO., LTD., priority 2021, dated 2025):

How the values were obtained:
[1] = Stability in sugar-acid solution, quantified by GC/MS internal standard method; assay type: physicochemical; details: 0.1% in sugar-acid solution (7% granulated sugar, 0.12% citric acid); room temperature (25° C.), 8 weeks, light shielding
Method: A stability of the present compound was evaluated by the following procedure. An aqueous solution including 7% granulated sugar and 0.12% citric acid (hereinafter, which may be referred to as a sugar-acid solution) was prepared. To this sugar-acid solution, the present invention product 1-1 was added so that the concentration was 0.1% to obtain the present invention product 3-1. As a comparative reference to the present compound, citral was added to a separately prepared sugar-acid solution so that the concentration was 0.1% to obtain the comparative product 3-1. Then, the present invention product 3-1 and the comparative product 3-1 were stored at room temperature (25° C.) for 8 weeks under light shielding. On the present invention product 3-1 and the comparative product 3-1, the present compound and citral were quantitatively analyzed by the internal standard method by using 2-chlorophenol as an internal standard substance under the following GC analysis conditions. The measurements were performed by using a GC/MS (apparatus name: GC 7890A/MSD 5975C, manufactured by Agilent Technologies Japan, Ltd.). […]

[2] = Aroma properties: 1% ethanol solutions sniffed by panelists; details: 1% ethanol solution; sniffed by 5 well-trained panelists; representative comments
Method: An aroma of the present compound was evaluated by the following procedure. A 1% ethanol solution of the present invention product 1-1 was prepared and used as the present invention product 2-1. As a comparative reference to the present compound, a 1% ethanol solution of citral was prepared and used as the comparative product 2-1, and a 1% ethanol solution of 4,8-dimethylnona-3,7-dien-2-one was prepared and used as the comparative product 2-2. 5 well-trained panelists having 10 years or more of experience sniffed at the present invention product 2-1 and the comparative products 2-1 and 2-2, and commented on felt aromas.

[3] = Detecting threshold concentration; details: compared with citral

## CC(C)=CCCC(C)=CC=O [citral, reference compound]
[1]
  concentration after storage relative to the initial concentration: completely disappeared

## C=C(CCC=C(C)C)CC(C)=O [present compound, 8-methyl-4-methylenenona-7-en-2-one]
[2]
  Comment (felt aromas): does not have the aspect of floral aromas
[3]
  detecting threshold concentration: the same level as that of citral
[1]
  concentration after storage relative to the initial concentration: 90%
